Calls of active or inactive are those of the source. The rule behind the calls is not given here.

Test [1] in a line: Cell cycle arrest in human A549 cells assessed as accumulation at S phase at 10 uM after 24 hrs by propidium iodide staining-based flow cytometry (reference value: 11.5%). Format: functional. In general terms: Flow cytometry measures light scatter and fluorescence of single cells or particles in a stream.
Test [2] concerns A549. Kind of test: Induction of apoptosis in human A549 cells assessed as destructive fragmentation of nucleus forming horse-shoe shaped structure at 10 to 15 uM after 24 hrs by acridine orange/ethidium bromide-dual staining based fluorescence microscopic method. Format: functional, cell-based.
Test [3] is described as follows: Cell cycle arrest in human A549 cells assessed as accumulation at G0/G1 phase at 5 uM after 24 hrs by propidium iodide staining-based flow cytometry (reference value: 66.6%). In kind it is functional.
The nature of test [4]: Cell cycle arrest in human A549 cells assessed as accumulation at S phase at 5 uM after 24 hrs by propidium iodide staining-based flow cytometry (reference value: 11.5%). In kind it is functional.
Test [5] concerns A549. Kind of test: Antimigratory activity in human A549 cells after 24 hrs by phase contrast microscopy-based wound healing assay. Format: functional, cell-based.
Test [6] has as its system A549. As to the kind of experiment: Induction of apoptosis in human A549 cells assessed as apoptotic body formation at 10 to 15 uM after 24 hrs by acridine orange/ethidium bromide-dual staining based fluorescence microscopic method. In kind it is functional, cell-based.
Test [7] deals with A549. As to the kind of experiment: Induction of mitochondrial membrane potential loss in human A549 cells at 15 uM after 24 hrs by rhodamine-123 staining based flow cytometry relative to control. Format: functional.
A short description of test [8]: Antimigratory activity in human A549 cells assessed as cell migration at 15 uM after 24 hrs by phase contrast microscopy-based wound healing assay relative to control. In kind it is functional.
The subject of test [9] is A549. As to the kind of experiment: Induction of apoptosis in human A549 cells assessed as chromatin condensation at 5 to 15 uM after 24 hrs by DAPI staining based fluorescence microscopic method. In kind it is functional, cell-based.
The subject of test [10] is A549. As to the kind of experiment: Induction of apoptosis in human A549 cells assessed as late apoptotic cells at 5 uM after 24 hrs by Annexin V-FITC/propidium iodide staining based flow cytometry (reference value: 0.8%). In kind it is functional.
Test [11] has as its system A549. Kind of test: Induction of mitochondrial membrane potential loss in human A549 cells at 5 uM after 24 hrs by rhodamine-123 staining based flow cytometry relative to control. Format: functional.
Test [12] relates to A549. As to the kind of experiment: Induction of apoptosis in human A549 cells assessed as necrotic cells at 15 uM after 24 hrs by Annexin V-FITC/propidium iodide staining based flow cytometry (reference value: 2.3%). In kind it is functional.

For `Cn1c(/C=C2\SC(=O)N(CC(=O)Nc3nc(-c4ccccc4)cs3)C2=O)nc2ccccc21`, the Activity was 7.9% in test [1]; 48.9% in test [3]; 11.4% in [4]; “Dose-dependent effect” with A549 [5]; 45.8% in the test on A549 [7]; 60.4% in test [8]. For the same molecule, the Activity in the test with A549 [10] turned out to be 6.2%; in the test on A549 [11], 24.6%; in the test on A549 [12], 2.5%. For the same molecule, the outcome in the test with A549 [2], with A549 [6] and with A549 [9] was Active.

The values above are taken from ChEMBL document CHEMBL3875162, “Synthesis and biological evaluation of new benzimidazole-thiazolidinedione hybrids as potential cytotoxic and apoptosis inducing agents” (Eur J Med Chem, 2016).
